Where “and” joins values, the source holds several entries; their conditions need not be identical. Equal values may be shown once.
Tests used:
2-HG production = experiment: Plasma 2-HG inhibition (LC-MS metabolite analysis in plasma of AML PDx model); assay type: in vivo, human
[1] = system: IDH1(R132H) primary human AML cells; experiment: AML cell differentiation in blood (flow cytometry, % hCD33+hCD11b+ of hCD45+ cells), human AML PDx models in NSG mice; assay type: in vivo; conditions: for AML cell differentiation (% hCD33 + hCD11b+ (of hCD45+ cells)): 2 mg/kg Cytarabine, IP, (QDx5, rest2)X2) 14 days off)x2, each value one animal, 2 mg/kg
Procedure: (§1) Compounds and Formulation. For in vivo studies, each test article is prepared at an appropriate concentration with vehicle. […] Compound A is prepared fresh at the appropriate concentrations with vehicle every 7 days and stored at 4° C. between doses. […] Cytarabine is prepared fresh weekly by dilution with sterile saline from stock solution of Cytarabine (injection 20 mg/mL, (Pfizer injectables')). Azacitidine (Sigma, Lot #MKBR7212) is formulated in sterile water and is prepared fresh daily immediately before dosing. In vivo human AML PDx models. […] Two models are used in the studies: […] As needed, splenocytes from tumor-bearing mice are used to propagate and expand the models, as described. Each test article is prepared as described above at an appropriate concentration with vehicle to give animals the doses tested in this study at a dosing volume of 10 μL/gram body weight. Mice receiving Compound A (PO, QD) are treated at the indicated doses for the duration of the study. The combination agents are dosed as follows: […] Treated mice are assessed in comparison to vehicle treated and naïve (non-tumor bearing) control mice. Body weight is recorded twice per week. […] AML PDx model propagation. […] Spleens are processed and splenocytes isolated as described below. Two hundred μL per subject of the splenocyte prep is injected IV (intravenous, tail vein) into recipient NSG mice. […] Once engraftment is confirmed, the mice are monitored biweekly until ready to be put on study. […] Submandibular blood is collected. Spleen/Splenocyte Processing and Prep. After excision, a spleen is weighed, and […] is placed in a standard sterile 15 mL polypropylene conical tube containing PBS, and placed on ice. […] The spleen is placed in ice cold sterile PBS in a 15 mL collection tube. The spleen is removed from the collection tube and placed in a 100 micron 50 mL conical tube cell strainer (BD Falcon #352360). The spleen is processed by gentle rubbing of the spleen tissue against the surface of the cell strainer with the end of a 5 mL syringe plunger in a circular motion. The surface of the strainer is rinsed with 10 mL room temperature sterile DPBS (HyClone SH30028) 3 times during the process. […] The cell pellet is collected by centrifugation (300×g) and washed three times with 30 mL sterile DPBS. The cells are counted and resuspended in DPBS at the desired implant concentration. Bone Marrow Collection. […] Flow cytometry analysis of human white cells. Submandibular blood samples from in vivo studies are collected. Fluor-conjugated antibody stains are added according to the manufacturer's instructions (anti-human CD33-PE (clone WM53, BD Cat #555450), anti-human CD14-APC (clone MφpP9, BD Cat #340436), anti-human CD15-V450 (clone HI98, BD Cat #561584), anti-human CD117-BV421 (clone YB5.B8, BD Cat #562434), anti-human […]7 (clone ICRF44, BD Cat #557754), anti-human […]7 (clone HI30, BD Cat #557748), and anti-human CD3-FITC (clone SK7, BD Cat #340542)). The samples are incubated for 30 minutes at room temperature, protected from light. After the incubation, 1.5 mL 1×BD Lyse/Fix (37° C., (BD #558049)) is added to each sample and incubated for 12 minutes at room temperature. The tubes are centrifuged at 300×g for 7 minutes. BD Lyse/Fix solution is aspirated and the cell pellet washed with stain/wash buffer 3 times (1 wash step consisted of: pellet resuspended in 3 mL stain/wash buffer, centrifuged at 300×g, aspirated wash). Fixed cells are then resuspended in 300 to 400 μL stain/wash buffer. Samples are analyzed on a Becton Dickinson FACSVerse Flow cytometer (Cat #651155 Serial #Z6511550447) using standard flow cytometry principles and techniques. Samples are analyzed on the same day as they are stained and fixed. Population gating and data analysis of percent population are performed in the FACSuite software on the FACSVerse cytometer. Percent population values from the data analysis are plotted in Graphpad Prism or in JMP13. […]

[2] = system: IDH1(R132H) primary human AML cells; experiment: Bone marrow AML clearance (flow cytometry), human AML PDx models in NSG mice; assay type: in vivo
Procedure: as §1

[3] = system: IDH1(R132H) primary human AML cells; experiment: AML clearance in peripheral blood (flow cytometry, % hCD33+hCD45+ of total white cells), human AML PDx models in NSG mice; assay type: in vivo; conditions: for AML clearance (% hCD33 + hCD45+ (of total white cells)): 2 mg/kg Cytarabine, IP, (QDx5, rest2)X2) 14 days off)x2, each value one animal, 2 mg/kg
Procedure: as §1

[4] = 2 mg/kg Cytarabine, IP, (QDx5, rest2)X2) 14 days off)x2, each line one animal
[5] = 2 mg/kg Cytarabine, IP, (QDx5, rest2)X2) 14 days off) × 2, each line one animal

Nc1ccn([C@@H]2O[C@H](CO)[C@@H](O)[C@@H]2O)c(=O)n1 [Cytarabine, reference compound]
% Inhibition of 2-HG (plasma) (2-HG production; [4]): 78.844% and 68.361% and 88.982% and 79.768% and 71.68% and 76.685% and 68.331%
Naive Subtracted 2-HG (plasma) (2-HG production; [4]): 2.348 µM and 3.512 µM and 1.223 µM and 2.246 µM and 3.143 µM and 2.588 µM and 3.515 µM
Plasma 2-HG (2-HG production; [4]): 3.256 µM and 4.42 µM and 2.131 µM and 3.154 µM and 4.051 µM and 3.496 µM and 4.423 µM
% plasma 2-HG (treatment group value) (2-HG production; group C: cytarabine (2 mg/kg), vehicle 100%): 24%
AML cell differentiation (% hCD33 + hCD11b+ (of hCD45+ cells)) ([1]; Treatment day 18): 15.93% and 18.69% and 13.00% and 11.66% and 14.07% and 10.70% and 11.81%
AML cell differentiation (% hCD33 + hCD11b+ (of hCD45+ cells)) ([1]; Treatment day 34): 37.13% and 33.07% and 31.02% and 31.17% and 33.03% and 37.1%
AML cell differentiation (% hCD33 + hCD11b+ (of hCD45+ cells)) ([1]; Treatment day 47): 8.3% and 7.84% and 7.69% and 5.82% and 16.79% and 5.09% and 7.21%
AML cell differentiation (% hCD33 + hCD11b+ (of hCD45+ cells)) ([1]; Treatment day 61): 9.5% and 8.65% and 9.29% and 6.94% and 10.6% and 7.78% and 8.46%
AML cell differentiation (% hCD33 + hCD11b+ (of hCD45+ cells)) ([1]; Treatment day 75): 5.65% and 7.65% and 11.09% and 11.48% and 10% and 10.46%
AML cell differentiation (% hCD33 + hCD11b+ (of hCD45+ cells)) ([1]; Treatment day 89): 8.75% and 10.17% and 8.87% and 18.02% and 12.49% and 11.08%
AML cell differentiation (% hCD33 + hCD11b+ (of hCD45+ cells)) ([1]; Treatment day −3): 16.46% and 20.43% and 14.95% and 8.62% and 13.39% and 10.09% and 12.17%
% AML cell differentiation (treatment group value) ([1]; day 47, group C: cytarabine (2 mg/kg), vehicle 10%): 8%
Bone Marrow AML Clearance: % hCD33 + hCD45+ (% of white cells) [2, 5]: 64.38% and 75.48% and 39.66% and 80.32%
Bone Marrow AML Clearance: % hCD45+ (% of white cells) [2, 5]: 71.88% and 78.06% and 44.54% and 80.75%
% human AML cells in bone marrow (of white cells; lower = more clearance) ([2]; group C: cytarabine (2 mg/kg), vehicle 94%): 63%
AML clearance (% hCD33 + hCD45+ (of total white cells)) ([3]; Treatment day 18): 8.04% and 3.22% and 3.24% and 8.64% and 3.23% and 3.50% and 4.40%
AML clearance (% hCD33 + hCD45+ (of total white cells)) ([3]; Treatment day 34): 9.07% and 2.02% and 3.5% and 2.54% and 1.79% and 2.04%
AML clearance (% hCD33 + hCD45+ (of total white cells)) ([3]; Treatment day 47): 8.25% and 8.31% and 5.29% and 4.92% and 2.29% and 4.71% and 5.51%
AML clearance (% hCD33 + hCD45+ (of total white cells)) ([3]; Treatment day 61): 17.63% and 29.86% and 14.99% and 42.59% and 15.49% and 29.04% and 29.58%
AML clearance (% hCD33 + hCD45+ (of total white cells)) ([3]; Treatment day 75): 56.57% and 60.59% and 22.85% and 59.75% and 36.77% and 44.17%
AML clearance (% hCD33 + hCD45+ (of total white cells)) ([3]; Treatment day 89): 76.67% and 78.11% and 57.04% and 81.53% and 79.57% and 68.92%
AML clearance (% hCD33 + hCD45+ (of total white cells)) ([3]; Treatment day −3): 21.32% and 14.8% and 13.68% and 21.94% and 21.7% and 20% and 17.15%
% peripheral blood AML cells (treatment group value) ([3]; day 47, group C: cytarabine (2 mg/kg), vehicle 86%): 5.2%
